Laboratory results reported in patent publication US20240041982A1, “EXTENDED RELEASE HYDROGEL CONJUGATES OF C-NATRIURETIC PEPTIDES” (ProLynx LLC, priority 2020, published 2024).
Bridge positions count the residues as written; N and C are the ends. Ends that are not written are not given here.

What was measured:
[1] = test system: wild-type male mice (FVB/nJ); experiment: Pharmacodynamics in juvenile mice: growth and bone length by X-ray; format: in vivo; conditions: QD 70 nmol/kg; after 5 weeks of treatment
Protocol: Three-week old wild-type male mice (FVB/nJ; Charles River Laboratory, Inc) were administered subcutaneous injections of the conjugates of Example 3 at either a weight-adjusted (nmol/kg) or constant (nmol/animal independent of the initial weight) dose over 35 days. For experiments using constant doses/animal, the conjugate of Example 3 wherein R^1=isopropylsulfonyl (conjugate 4A) was administered at either 20 or 50 nmol/mouse; the conjugate of Example 3 wherein R^1=(N,N-dimethylamino)sulfonyl (conjugate 4B) was administered at either 85 or 600 nmol/mouse. For experiments using weight-adjusted doses/animal, conjugate 4A was administered at either 1.5 or 2.2 umol/kg; conjugate 4B was administered at 6.1 umol/kg. Doses were calculated based on the body weight just prior to dosing and performed at approximately the same time of day. Comparator animals were dosed with either [Gln^6,14]CNP-38 or vosoritide at 70 nmol/kg formulated in 30 mM acetic acid pH 4.0 containing 10% (w/v) sucrose and 1% (v/v) benzyl alcohol (Wendt; Breinholt), and control animals were dosed with the formulation buffer (isotonic acetate (10 mM Na Acetate, 143 mM NaCl), pH 5.0, 0.05% Tween 20 buffer containing 1.2% sodium hyaluronate. Daily weight-adjusted doses were calculated based on the body weight just prior to dosing and performed at approximately the same time each day.
Blood collections were made via tail vein with the addition of protease inhibitors (Halt protease inhibitor cocktail, ThermoScientific) and processed with K2EDTA to provide ˜15-20 μL plasma, for analysis of free [Gln^6,14]CNP-38. For the mice treated with the conjugate 4A, blood collection occurred at 0, 24, 168, 192, 336, 360, 504, 528, 672 and 840 hr. For the mice treated with conjugate 4B, blood collection occurred at 0, 24, 168, 336, 504, 672 and 840 hr.
Body weight, tail length and naso-anal length were collected at study initiation and were measured weekly during the in-life treatment period. […] The naso-anal (distance from the tip of the nose to the anus) and the tail length (distance from the anus to the tip of the tail) were measured and recorded. The same ruler was used for all measurements, and all measurements were conducted and recorded in centimeters. Total length (TL) is derived from the addition of the measured tail length and naso-anal length.
On day 35, the mice were anesthetized and in addition to the nasal-anal and tail length measurements, bone length measurements were made by digital X-ray (spine, right femur, right tibia, humerus and ulna). Following deep anesthesia with isoflurane, the mice were placed in the prone position and the length of the spine (lateral view, distance from the most cranial end of the C1 vertebra to the most caudal end of the S4 vertebra and accounting for curvature manually), the right femur (distance from the most proximal femoral head ossification center to the most distal ossification center in dorso-ventral view), the right tibia (distance from the most proximal ossification center to the most distal ossification center in dorso-ventral view), the right humerus (distance from the most proximal ossification center to the most distal ossification center in dorso-ventral view), and the right ulna (distance from the most proximal ossification center to the most distal ossification center in dorso-ventral view) of each mouse were measured by x-ray using a Spectral Imaging Instruments AMI HTX and the associated Aura software.

[2] = in vivo; cited from earlier work
[3] = in vivo; cited from earlier work; remark: listed apart in the source
NPR-B = target: T1, NPR-B (Homo sapiens, UniProt P20594); conditions: physiological concentrations (picomolar); cited from earlier work
T1 sequence (P20594 23-1047): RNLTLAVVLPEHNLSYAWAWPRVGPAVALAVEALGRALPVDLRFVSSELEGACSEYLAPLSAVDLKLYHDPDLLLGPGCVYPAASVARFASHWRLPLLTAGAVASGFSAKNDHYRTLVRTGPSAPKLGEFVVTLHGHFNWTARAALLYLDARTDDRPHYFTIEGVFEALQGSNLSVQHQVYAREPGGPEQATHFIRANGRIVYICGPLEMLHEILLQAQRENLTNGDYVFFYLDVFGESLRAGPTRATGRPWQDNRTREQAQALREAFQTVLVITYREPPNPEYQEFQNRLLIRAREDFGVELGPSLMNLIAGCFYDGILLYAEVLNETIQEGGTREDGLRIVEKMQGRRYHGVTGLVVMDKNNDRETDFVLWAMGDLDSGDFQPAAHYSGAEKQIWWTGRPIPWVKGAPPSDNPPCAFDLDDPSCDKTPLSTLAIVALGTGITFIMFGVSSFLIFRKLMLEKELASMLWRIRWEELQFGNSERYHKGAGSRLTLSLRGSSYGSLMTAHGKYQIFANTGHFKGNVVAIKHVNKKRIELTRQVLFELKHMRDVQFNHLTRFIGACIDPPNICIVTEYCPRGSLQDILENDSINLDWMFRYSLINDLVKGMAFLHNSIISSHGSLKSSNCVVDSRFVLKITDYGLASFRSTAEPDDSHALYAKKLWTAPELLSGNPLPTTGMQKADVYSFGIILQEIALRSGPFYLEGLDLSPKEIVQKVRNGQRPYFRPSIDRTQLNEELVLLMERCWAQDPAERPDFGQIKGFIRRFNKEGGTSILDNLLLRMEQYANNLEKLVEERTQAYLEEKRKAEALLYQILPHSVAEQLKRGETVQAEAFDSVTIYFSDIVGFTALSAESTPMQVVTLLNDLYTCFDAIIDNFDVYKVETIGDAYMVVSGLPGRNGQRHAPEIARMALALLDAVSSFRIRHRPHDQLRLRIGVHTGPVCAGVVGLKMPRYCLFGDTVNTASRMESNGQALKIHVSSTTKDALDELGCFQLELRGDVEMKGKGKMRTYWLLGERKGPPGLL

(Gln^6,14)CNP38 (LQEHPQARKYKGAQKKGLSKGCFGLKLDRIGSMSGLGC; disulfide 22-38) [[Gln6, 14] CNP-38]
Femur length % change from vehicle [1]: (13.6%)
Humerus length % change from vehicle [1]: (0.8%)
Spine length % change from vehicle [1]: (10.1%)
Tibia length % change from vehicle [1]: (8.7%)
Ulna length % change from vehicle [1]: (5.4%)

vosoritide (PGQEHPNARKYKGANKKGLSKGCFGLKLDRIGSMSGLGC; disulfide 23-39)
known side-effects [2]: increased heart rate and a drop in arterial blood pressure
half-life [3]: 20 min

CNP22
plasma half-life [3]: ~3 min
affinity for NPR-B relative to ANP and BNP (NPR-B): 50-500 times
